{"source": "patent US20220281931A1", "about": "“CHEMICALLY INDUCIBLE POLYPEPTIDE POLYMERIZATION” (Dana-Farber Cancer Institute, Inc., priority 2019, published 2022)", "key": {"SuDHL4Cas9 cells": {"tested_on": "SuDHL4Cas9 cells", "test": "Whole proteome quantification using tandem mass tag mass spectrometry", "assay_type": "cell-based, human", "conditions": "SuDHL4 cells, 1 μM compound, 4 hours", "protocol": "10×10^6 SuDHL4Cas9 cells were treated with DMSO, 1 μM BI-3802 or 1 μM BI-3812 for 1 h or 4 h in triplicates and cells were harvested by centrifugation. Samples were processed, measured and analyzed as previously described (Donovan, K. A. et al. Thalidomide promotes degradation of SALL4, a transcription factor implicated in Duane Radial Ray syndrome. Ehfe 7, doi:10.7554/eLife.38430 (2018)). Data are available in the PRIDE repository (PXD016185)."}, "[1]": {"target": "T1, BCL6-eGFP fusion construct (Homo sapiens, UniProt P41182)", "T1 construct": "expressed in transfected cells; host or cells: HEK293TCas9 cells, lentiviral transduction (Cilantro2 vector)", "test": "Live cell imaging of BCL6-eGFP foci in HEK293T cells", "assay_type": "cell-based", "conditions": "eGFPBCL6^1-250, 10 μM BI-3812 added 75 minutes after 1 μM BI-3802", "protocol": "1×10^3 HEK293T cells per cm^2 were seeded in a μ-Slide 8 Well chamber (ibidi) and cultured for 18-24 h under standard growth conditions. Cell culture medium was exchanged to CO2 independent media (Gibco) and imaged with the DeltaVision Ultra High-Resolution Microscope (GE Healthcare, 100×lens, oil refraction index=1.520). The following acquisition parameters were used: Image size […], binning 1×1, GFP exposure time 0.08 sec. and the Neutral Density (% T) filter 32%. To capture foci within all cell volume, around 26μm per cell was imaged every 0.4-0.5 μm. Images were deconvolved (10 cycles, conservative conditions) and projected using maximal intensity by softWoRx® 7.0.0. Images for movies were taken every 10 minutes and combined to a movie by QuickTime."}, "BCL6^5-360 - SIAH1^SBD": {"target": "T2, BCL6^5-360 - SIAH1^SBD (Homo sapiens, UniProt P41182)", "T2 construct": "200 nM BodipyFL-labeled BCL6^5-360 variants; His6 (N); Spy (C); made in house; host or cells: Trichoplusia ni High Five insect cells, baculovirus", "test": "BCL6-SIAH1 TR-FRET", "assay_type": "biochemical", "conditions": "in vitro, increasing compound concentration", "protocol": "After dispensing the assay mixture (15 μL volume), increasing concentrations of compounds were dispensed in a 384-well microplate (Corning, 4514) using a D300e Digital Dispenser (HP) normalized to 1% DMSO. After excitation of terbium fluorescence at 337 nm, emission at 490 nm (terbium) and 520 nm (BodipyFL) were recorded with a 70 us delay over 600 μs to reduce background fluorescence, and the reaction was followed over 60 cycles of each data point using a PHERAstar FS microplate reader (BMG Labtech). The TR-FRET signal of each data point was extracted by calculating the 520/490 nm ratio. The half-maximal effective concentration (EC50) values were estimated using dose-response analysis standard four parameter log-logistic curves, fitted to the experimental data using […] package. […] After dispensing the assay mixture, increasing concentration of BodipyFL-BCL6^5-360 was added to the SIAH1 mixture in a […] (7.5 μL each, total 15 μL assay volume). The 520/490 nm ratios were measured in as described above and plotted to calculate the KD^APP values using dose-response analysis standard four parameter log-logistic curves using […] package."}, "BCL6^5-129": {"target": "T3, BCL6^5-129 (Homo sapiens, UniProt P41182)", "T3 construct": "mixing 100 nM biotinylated BCL6^5-129, 100 nM N-terminal FITC-labeled BCoR peptide; made in house; host or cells: Trichoplusia ni High Five insect cells, baculovirus", "test": "BCL6-BCoR TR-FRET (compound binding assay)", "conditions": "0.1 μM FITCBCoR polypeptide, 0.1 μM BiotinBCL6^5-129", "protocol": "Competitive titration of BI-3802 or BI-3812 were carried out by mixing 100 nM biotinylated BCL6^5-129, 100 nM N-terminal FITC-labeled BCoR peptide (sequence: […]), and 2 nM terbium-coupled streptavidin in the same assay buffer. After dispensing the assay mixture (15 μL volume), increasing concentrations of compounds were dispensed in a 384-well microplate (Corning, 4514) using a D300e Digital Dispenser (HP) normalized to 1% DMSO. The 520/490 nm ratios were measured as described above and plotted to calculate the KD^APP values using dose-response analysis standard four parameter log-logistic curves using the dr4pl R package."}, "[2]": {"target": "T4, eGFPBCL6 stability reporter (Homo sapiens, UniProt P41182)", "T4 construct": "the full length BCL6 (BCL6^FL) was fused in-frame with eGFP; expressed in transfected cells; host or cells: HEK293TCas9 cells, lentiviral transduction (Artichoke vector)", "test": "Degradation of BCL6 reporter constructs in HEK293T cells (flow cytometry)", "assay_type": "cell-based", "conditions": "for effect on BI-3802-induced degradation of eGFPBCL6^FL: HEK293TCas9 cells, 0.5 μM MLN7243, 5 μM MLN4924 or 10 μM MG132 for 3 hours plus 1 μM BI-3802 for 1 hour", "protocol": "Lentivirus was packaged in HEK293T cells using TransIT (Mirus) and subsequently used for spin infection.\nHEK293TCas9 cells expressing indicated constructs in “Artichoke” or “Cilantro2” stability reporter vectors (PGK or SFFV Target-eGFP-IRES-mCherry, puromycin resistance) were plated in 96 well plates and treated for indicated times. BCL6-eGFP and mCherry expression were quantified by flow cytometry (CytoFLEX, Beckman or LSR Fortessa flow cytometer BD Biosciences). All degradation assays were done in at least triplicates. Geometric means of eGFP and mCherry fluorescent signals for live and mCherry positive cells were exported using flow cytometry analysis software (FlowJo, BD). Ratios of eGFP to mCherry were normalized to the average of DMSO-treated controls."}}, "note": "Residues, ends and D or L forms follow the SMILES beside them. *: point of attachment. Cbz = O=C(OCc1ccccc1)*", "data": [{"smiles": "CNC(=O)COc1cc2cc(Nc3nc(N4CCC(C(=O)N(C)C)CC4)ncc3Cl)cc(OC)c2n(C)c1=O", "note": "[BI-3812, 1-(5-chloro-4-((8-methoxy-1-methyl-3-(2-(methylamino)-2-oxoethoxy)-2-oxo-1,2-dihydroquinolin-6-yl)amino)pyrimidin-2-yl)-N,N-dimethylpiperidine-4-carboxamide]", "values": [{"measurement": "change in polypeptide abundance (whole proteome)", "setting": "SuDHL4Cas9 cells", "result": "did not alter the abundance of any polypeptide"}, {"measurement": "reversal of BI-3802-induced foci", "setting": "[1]", "result": "fully reversible"}, {"measurement": "effect on the BCL6-SIAH1 interaction (TR-FRET)", "setting": "BCL6^5-360 - SIAH1^SBD", "result": "did not influence the BCL6-SIAH1 interaction"}, {"measurement": "affinity of compound to BCL6 (BCoR peptide competition)", "setting": "BCL6^5-129", "result": "comparable affinity"}, {"measurement": "block of BI-3802-induced BCL6 degradation", "setting": "[2]; HEK293T cells expressing eGFPBCL6^1-275, simultaneous BI-3802 and excess BI-3812, 24 hours", "result": "efficiently blocked BI-3802-induced BCL6 degradation"}, {"measurement": "degradation of full-length BCL6 reporter (eGFPBCL6^FL)", "setting": "[2]; HEK293T cells, 1 μM, 1 hour", "result": "did not alter stability of the reporter"}]}, {"smiles": "CC(C)C[C@@H](C=O)NC(=O)[C@H](CC(C)C)NC(=O)[C@H](CC(C)C)NC(=O)OCc1ccccc1", "note": "[MG132] (Cbz-Leu-Leu-Leu-aldehyde)", "values": [{"measurement": "effect on BI-3802-induced degradation of eGFPBCL6^FL", "setting": "[2]", "result": "attenuated"}]}, {"smiles": "NS(=O)(=O)OC[C@@H]1C[C@@H](n2ccc3c(N[C@H]4CCc5ccccc54)ncnc32)C[C@@H]1O", "note": "[MLN4924]", "values": [{"measurement": "effect on BI-3802-induced degradation of eGFPBCL6^FL", "setting": "[2]", "result": "not by inhibition of the neddylation pathway with MLN4924"}]}, {"smiles": "NS(=O)(=O)OC[C@H]1C[C@@H](Nc2ccnc3cc(-c4cccc(SC(F)(F)F)c4)nn23)[C@H](O)[C@@H]1O", "note": "[MLN7243]", "values": [{"measurement": "effect on BI-3802-induced degradation of eGFPBCL6^FL", "setting": "[2]", "result": "attenuated"}]}]}
